Test results as given in paper PMC7948455, “Novel drug discovery platform for spinocerebellar ataxia, using fluorescence technology targeting β-III-spectrin” (The Journal of Biological Chemistry, 2020).
Entries after “also recorded” stand apart in the source; their conditions may differ. Where two headings read alike, the source gives them in different places.

How the values were obtained:
[1] = molecular target: T1, binding of the mutant β-III-spectrin L253P ABD to F-actin (Homo sapiens, UniProt O15020, L253P); assay: Primary live-cell FRET assay (GFP-ABD-L253P + Lifeact-mCherry) in HEK293-6E cells; type: cell-based; conditions: for Shift of FRET: 10 μM; for Effect of Hit compound on primary FRET: LOPAC Hits (10 μM screen, 4SD threshold, 120 min) and dose response
T1 construct: the β-III-spectrin (human) ABD residues 1 to 284; expressed in transfected cells; host or cells: HEK293-6E (pTT5 vector, transient transfection)
Experimental: To develop a biosensor that monitors the binding of mutant L253P β-III-spectrin to actin filaments in live cells, a FRET approach was tested. A FRET donor construct consisting of green fluorescent protein fused to the N terminus of the mutant ABD (GFP-ABD-L253P) was coexpressed in HEK293-EBNA1-6E (HEK293-6E) cells with a FRET acceptor construct consisting of the actin-binding peptide, Lifeact, fused to the N terminus of red fluorescent protein, mCherry (Lifeact-mCherry). Lifeact is a 17 amino acid peptide derived from the yeast actin-binding protein, ABP140 ([15]). […] The cryo-EM structures of ABD L253P and Lifeact on actin indicate that the binding sites overlap on actin units. With ABD L253P and Lifeact bound on neighboring actin units, we predicted an average distance of ∼80 Å between GFP and mCherry (Fig. 1). With a known Förster distance R0 of 52.4 Å ([17]), this corresponds to FRET value of 0.07, a sufficient signal for a biosensor platform. To design a system most compatible for large production and eventual screening of 50,000+ compound libraries, we used HEK293-6E cells, a suspension cell line that yields greater levels (>threefold) of recombinant protein expression ([18], [19]).
With a constant amount of GFP-ABD-L253P expressed, increased Lifeact-mCherry expression increases FRET with an exponential plateau to 0.12 (Fig. 2A). To measure the nonspecific component of our FRET readout, we concurrently tested expression of mCherry in place of Lifeact-mCherry. For comparison, the Lifeact-mCherry and mCherry fluorescence intensity values (normalized to 1:1 GFP-ABD:Lifeact-mCherry sample) are plotted on the X-axis for samples transfected with different donor-to-acceptor DNA ratios. […] With the trade-off between high FRET and minimal nonspecific FRET, the donor:acceptor ratio 1:2 was chosen for the experiments that followed (Fig. 2A). […] Of note, we also tested the biosensor using WT-ABD, which yielded substantially lower FRET (Fig. S1), consistent with the 1000-fold decrease in affinity of WT-ABD for actin ([10]). We proceeded to test the compatibility of the GFP-ABD-L253P and Lifeact-mCherry assay for primary compound screening and the GFP-ABD-L253P and mCherry assay as a potential high-throughput counter screen.
To test the performance of the assay in HTS, the 1280 LOPAC compounds, together with 256 DMSO controls, were dispensed in 5 nl volumes into individual wells of 1536-well microplates and stored at −20 °C until use. To test the reproducibility of replicate screens on the same day, a single batch of HEK293 cells was transfected with GFP-ABD-L253P and Lifeact-mCherry. In addition, control cells were transfected with only GFP-ABD-L253P, to determine compound effect on donor-only lifetime (τD). To test reproducibility of the screens across different days, identical transfections were performed on another batch of HEK293-6E cells on a second day. Following plate thaw, 5 μl of assay cells were loaded in each well via a multidrop liquid dispenser, and a time course of compound effects (at 20, 120, and 180 min post load) on fluorescence lifetime was acquired using a fluorescence lifetime plate reader (FLT-PR). This technology has been advanced to high-density 1536-well plates in recent years for successful HTS using a range of protein biosensors including sarcoplasmic reticulum Ca-ATPase ([24], [25], [26], [27]), ryanodine receptor ([23], [28]), actin ([20]), tumor necrosis factor receptor 1 ([29], [30]), and tau ([31]).
At 2 × 10^6 cells/ml, HEK293-6E cells were transfected with GFP-ABD-L253P or GFP-ABD-WT (2.4 μg), Lifeact-mCherry (2.4–16.8 μg), mCherry (1.2–16.8 μg), and/or pTT5 (0.8–17.6 μg), as indicated, using the 293fectin protocol (Thermo Fisher Scientific) with 20 μg total DNA. Cells were transfected with either GFP-ABD-L253P or –WT, but coexpression of the WT and mutant isoform was not explored in this study. The cells were harvested 24 h later by centrifugation at 100g for 5 min and then washed twice with PBS. […]

[2] = test system: HEK293-6E cells; assay: Trypan blue cell viability assay; type: cell-based
Experimental: HEK293-6E cell viability was measured using trypan blue (0.03%) staining and a Countess Automated Cell counter (Invitrogen). Nontransfected HEK293-6E cells were spun at 100g for 5 min at 21 °C and resuspended in 10 ml of PBS. The centrifugation and resuspension were repeated twice more. Final cell concentration was 1 × 10^6 cells/ml. Cells were incubated with 2% DMSO or 3 to 50 μM compound (as indicated) for 3 h at room temperature (21 °C). After addition of 100 μl of 0.06% trypan blue solution in PBS, 10 μl was loaded on a slide and injected into the cell counter, and cell viability was measured.

[3] = 10 μM Hit compound, 3 h incubation

T1 sequence (O15020 1-284 L253P): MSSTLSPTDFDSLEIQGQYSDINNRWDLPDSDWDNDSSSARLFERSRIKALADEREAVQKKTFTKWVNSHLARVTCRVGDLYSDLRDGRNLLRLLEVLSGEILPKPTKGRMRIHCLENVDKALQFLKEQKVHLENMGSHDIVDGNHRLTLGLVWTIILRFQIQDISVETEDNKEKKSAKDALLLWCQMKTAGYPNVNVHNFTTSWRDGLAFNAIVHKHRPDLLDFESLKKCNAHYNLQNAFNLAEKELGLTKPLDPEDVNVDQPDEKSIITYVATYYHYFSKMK

| Shift of FRET [1] [%] | Effect of Hit compound on primary FRET [1] | SMILES | Effect on HEK293-6E cell viability [2, 3] | Reduction of Total FRET in primary FRET assay ([1]; 1 μM swinholide A, relative to DMSO) [%] | EC50 ([1]; Plate A, 1536-well, read-out: EC50 of specific FRET dose response) [nM] | EC50 ([1]; Plate B, 1536-well, read-out: EC50 of specific FRET dose response) [nM] | EC50 ([1]; Plate C, 1536-well, read-out: EC50 of specific FRET dose response) [nM] | Reduction in FRET (Fig. 2B) ([1]; swinholide A (3 μM in Fig. 2B legend), relative to DMSO, n = 3) [%] | EC50 ([1]; triplicate 12-point concentration response, 1536-well plates, read-out: EC50 of FRET reduction, average) [nM] | Effect on HEK293-6E cell viability ([2]; 3 μM swinholide A, 50 μM tegaserod, 3 h) |
| --- | --- | --- | --- | --- | --- | --- | --- | --- | --- | --- |
| 2 to 14 | decrease FRET | CCOc1nc2cccc(C(=O)O)c2n1Cc1ccc(-c2ccccc2-c2nnn[nH]2)cc1 [candesartan] | do not significantly alter |  |  |  |  |  |  |  |
| 2 to 14 | decrease FRET | CC(C)(C)c1ccc(/C=C/C(=O)Nc2ccc3c(c2)OCCO3)cc1 [AMG 9810] | do not significantly alter |  |  |  |  |  |  |  |
|  | decrease FRET | O=C(O)c1cc([N+](=O)[O-])ccc1NCCCc1ccccc1 [NPPB] | do not significantly alter |  |  |  |  |  |  |  |

More lines, now with the values behind:

| SMILES | Shift of FRET [1] [%] | Effect of Hit compound on primary FRET [1] | Effect on HEK293-6E cell viability [2, 3] | Reduction of Total FRET in primary FRET assay ([1]; 1 μM swinholide A, relative to DMSO) [%] | EC50 ([1]; Plate A, 1536-well, read-out: EC50 of specific FRET dose response) [nM] | EC50 ([1]; Plate B, 1536-well, read-out: EC50 of specific FRET dose response) [nM] | EC50 ([1]; Plate C, 1536-well, read-out: EC50 of specific FRET dose response) [nM] | Reduction in FRET (Fig. 2B) ([1]; swinholide A (3 μM in Fig. 2B legend), relative to DMSO, n = 3) [%] | EC50 ([1]; triplicate 12-point concentration response, 1536-well plates, read-out: EC50 of FRET reduction, average) [nM] | Effect on HEK293-6E cell viability ([2]; 3 μM swinholide A, 50 μM tegaserod, 3 h) |
| --- | --- | --- | --- | --- | --- | --- | --- | --- | --- | --- |
| CO[C@H]1C[C@H](CC[C@H](C)[C@H](O)[C@H](C)[C@H]2OC(=O)/C=C/C(C)=C/C[C@H](O)C[C@@H]3C=CC[C@@H](C[C@H](OC)[C@@H](C)[C@@H](O)C[C@@H](O)[C@H](C)[C@@H]([C@@H](C)[C@@H](O)[C@@H](C)CC[C@H]4C[C@H](OC)C[C@H](C)O4)OC(=O)/C=C/C(C)=C/C[C@H](O)C[C@@H]4C=CC[C@@H](C[C@H](OC)[C@@H](C)[C@@H](O)C[C@@H](O)[C@@H]2C)O4)O3)O[C@@H](C)C1 [swinholide A] |  |  |  | > 50 | 241 | 284 | 267 | 56 ± 7 | 264 | did not significantly alter |
| CCCCCCCC/C=C\CCCCCCCC(=O)NCc1ccc(O)c(OC)c1 [olvanil] | 2 to 14 | decrease FRET; also recorded: subtly reduced | do not significantly alter |  |  |  |  |  |  |  |
